# ChEMBL document CHEMBL2010750, “Penicillin inhibitors of purple acid phosphatase” (Bioorg Med Chem Lett, 2012)
# Active and inactive are the calls of the source. The rule behind the calls is not given here.
# Key:
# Sus scrofa [1] = species: Sus scrofa; experiment: Competitive inhibition of pig PAP using para-nitrophenol as substrate at pH 4.9 preincubated for 10 mins by UV-visible spectrophotometry
# Sus scrofa [2] = species: Sus scrofa; experiment: Uncompetitive inhibition of pig PAP using para-nitrophenol as substrate at pH 4.9 preincubated for 10 mins by UV-visible spectrophotometry
Kic (Sus scrofa [1]),Kiuc (Sus scrofa [2]),SMILES
32 µM,inactive,CC1(C)S[C@@H]2[C@H](NC(=O)c3ccc(C(=O)c4ccccc4Cl)cc3)C(=O)N2[C@H]1C(=O)O
53 µM,inactive,CC(=O)Oc1ccc(C(=O)N[C@@H]2C(=O)N3[C@@H]2SC(C)(C)[C@@H]3C(=O)O)cc1
17 µM,inactive,CC1(C)S[C@@H]2[C@H](NC(=O)c3ccc(C(=O)c4ccc([N+](=O)[O-])cc4)cc3)C(=O)N2[C@H]1C(=O)O
12 µM,inactive,CC1(C)S[C@@H]2[C@H](NC(=O)c3ccc(C(=O)c4ccc(Cl)cc4)cc3)C(=O)N2[C@H]1C(=O)O
241 µM,491 µM,CC1(C)S[C@@H]2[C@H](NC(=O)c3cccc(C(=O)N4CCCCC4)c3)C(=O)N2[C@H]1C(=O)O
60 µM,inactive,Cc1ccc(C(=O)c2cccc(C(=O)N[C@@H]3C(=O)N4[C@@H]3SC(C)(C)[C@@H]4C(=O)O)c2)cc1
26 µM,inactive,CC1(C)S[C@@H]2[C@H](NC(=O)c3ccc(C(=O)c4ccccc4)cc3)C(=O)N2[C@H]1C(=O)O
inactive,inactive,CC1(C)S[C@@H]2[C@H](NC(=O)Cc3ccccc3)C(=O)N2[C@H]1C(=O)O
23 µM,inactive,CC1(C)S[C@@H]2[C@H](NC(=O)c3ccc(C(=O)c4cccc([N+](=O)[O-])c4)cc3)C(=O)N2[C@H]1C(=O)O
